Reference: paper PMC5500991, “Substituted arylsulphonamides as inhibitors of perforin-mediated lysis” (European Journal of Medicinal Chemistry, 2017)

How the values were obtained:
[1] = In vivo plasma pharmacokinetics in mice; conditions: mouse plasma, 10 mg/kg i.p. in 20% hydroxypropyl-β-cyclodextrin
Method: The in vivo PK parameters were measured for seven compounds selected on the basis of the in vitro assessment described above. Plasma pharmacokinetics were determined in male CD-1 mice for compounds 3, 10, 11, 26, 50, 58 and 59 (Table 6). Blood samples were collected at 5–8 time-points after dosing the compounds at 10 mg/kg in a solution of 20% hydroxypropyl-β-cyclodextrin by intraperitoneal (IP) injection. For analysis of the samples, chromatographic conditions were optimised by HPLC for each compound of interest and an internal standard. A liquid chromatography with tandem mass spectrometry (LC-MS/MS) method was then developed and validated for quantitation of each analyte.
PK studies were carried out in female C57BL/6J (female) mice using IP administration of test compound, dosing at 10 mg/kg in a solution of 20% hydroxypropyl-β-cyclodextrin. Mice (n=3 at each time point) were culled with excess inhalation of CO2 and blood collected by cardiac puncture at 5-8 time points after dosing in ice cold EDTA tubes. Plasma was separated by centrifuging at 6000 rpm for 5 min and stored at -80°C until analysis by LC-MS/MS. Frozen plasma was thawed on wet ice on the day of analysis. Ten μL of sample was transferred to a clean microcentrifuge tube and mixed with ice cold acetonitrile (40 μL containing internal standard) to precipitate the plasma proteins. The tubes were centrifuged at 13000 rpm for 5 min to obtain a clear supernatant which was mixed with 0.01% formic acid-water (1:2). Ten to twenty µL was injected into the LC-MS/MS to measure the analyte concentration in the sample. The samples were quantitated against a calibration curve of known analyte concentrations run in test species blank plasma (sourced from Innovative Research, USA). The concentration vs time data was then fitted into a pharmacokinetic software program (Phoenix WinNonlin v6.2) to calculate the PK parameters including T½, Cmax and AUC0-∞.

[2] = Solubility of the sodium salt in water; type: physicochemical; conditions: sodium salt in water at room temperature
Method: The compound was dissolved in water until it was no longer soluble in order to achieve a supersaturated concentration. The suspensions were sonicated for 15 min. prior to centrifugation at 13,000 revolutions per minute (rpm) for 6 minutes. Supernatants were removed and then recentrifuged prior to dilution of at least two fold in water to avoid precipitation during HPLC analysis.

[3] = Toxicity to KHYG1 NK cells (Trypan blue exclusion); type: cell-based, human; conditions: human, viability of KHYG1 NK cells after 24 h, n = 3
Method: The toxicity assay was carried out in exactly the same manner as the killing assay above, but instead of adding the labelled K562 target cells, 100 μL of RPMI 0.1% BSA was added. Cells were incubated for 4 h at 37 °C and then washed ×3 in RPMI + 0.1% BSA. […] Trypan blue was added to each well. Viable (clear) cells and total (clear + blue) cells were counted, and the percentage of viable cells was calculated compared to DMSO treated cell control (% viability).

Microsome stability, rat = type: in vitro ADME; conditions: parent (as sodium salt) remaining after 30 min, rat microsomes
Method: (§1) Microsome stability was carried out at Cyprotex using pooled human liver microsomes (male and female), pooled rat liver microsomes (male, Sprague Dawley rats), pooled mouse liver microsomes (male CD-1 mice) which were either prepared or purchased from a reputable commercial supplier. […] The final incubation volume was 25 μL. A control incubation was included for each compound tested where 0.1 M phosphate buffer pH 7.4 was added instead of NADPH (minus NADPH). Two control compounds were included with each species. All incubations were performed singularly for each test compound. Each compound was incubated for 0, 5, 15, 30 and 45 min. The control (minus NADPH) was incubated for 45 min only. The reactions were stopped by the addition of 50 μL methanol containing internal standard at the appropriate time points. The incubation plates were centrifuged at 2,500 rpm for 20 min at 4 °C to precipitate the protein. Following precipitation, the sample supernatants were combined in cassettes of up to 4 compounds and analysed using Cyprotex generic LC-MS/MS conditions. From a plot of ln peak area ratio (compound peak area/internal standard peak area) against time, the percentage compound remaining at 30 min was calculated. Results that were > 100% of matched control were defined as 100%.

[4] = Stability in solution (water, 20 °C, 24 h); type: physicochemical; conditions: sodium salt, 24 h at 20 °C in water
Method: Test compounds were incubated (10 μM; < 2.5% DMSO in final concentration) in Milli Q water (n=3 tubes) at 20 °C for 24 h. (Eppendorf Thermomixer Comfort). Aliquots were collected (25 μL) just before the incubation (time “0 min”) and at 24 h. These samples were stored in a -80 °C freezer until the analysis by liquid chromatography with tandem mass spectrometry spectrometry (LC-MS/MS) – see next section for method development. Samples were thawed on wet ice on the day of assay. Thawed aliquots were mixed by vortex mixer, 10 μL of the sample transferred to a clean tube, 40 μL of ice cold acetonitrile added (containing internal standard compound), then centrifuged at 13,000 rpm for 5 min, 40 μL of clear supernatant transferred to an HPLC insert and mixed with 80 μL of 0.01% formic acid in water. Ten to 20 μL was injected onto the LC-MS/MS system. Results are based on the peak area ratio of drug to internal standard at time “0 h” (i.e. before the incubation and at the end i.e. “24 h”).

[5] = Microsome stability, mouse; type: in vitro ADME; conditions: parent (as sodium salt) remaining after 30 min, mouse microsomes
Method: as §1

[6] = biological target: T1, perforin delivered by KHYG1 NK cells (Homo sapiens, UniProt P14222); assay: KHYG1 inhibitory assay: lysis of 51Cr-labelled K562 target cells by KHYG1 NK cells; type: cell-based; conditions: 51Cr-labelled K562 target cells co-incubated with KHYG1 human NK cells, vs untreated control, n = 4
T1 construct: The use of whole NK cells to deliver perforin provides a more realistic model of conditions in vivo; endogenous in cells; host or cells: KHYG1 human NK cells (effector); K562 leukemia target cells
T1 sequence (P14222 22-555): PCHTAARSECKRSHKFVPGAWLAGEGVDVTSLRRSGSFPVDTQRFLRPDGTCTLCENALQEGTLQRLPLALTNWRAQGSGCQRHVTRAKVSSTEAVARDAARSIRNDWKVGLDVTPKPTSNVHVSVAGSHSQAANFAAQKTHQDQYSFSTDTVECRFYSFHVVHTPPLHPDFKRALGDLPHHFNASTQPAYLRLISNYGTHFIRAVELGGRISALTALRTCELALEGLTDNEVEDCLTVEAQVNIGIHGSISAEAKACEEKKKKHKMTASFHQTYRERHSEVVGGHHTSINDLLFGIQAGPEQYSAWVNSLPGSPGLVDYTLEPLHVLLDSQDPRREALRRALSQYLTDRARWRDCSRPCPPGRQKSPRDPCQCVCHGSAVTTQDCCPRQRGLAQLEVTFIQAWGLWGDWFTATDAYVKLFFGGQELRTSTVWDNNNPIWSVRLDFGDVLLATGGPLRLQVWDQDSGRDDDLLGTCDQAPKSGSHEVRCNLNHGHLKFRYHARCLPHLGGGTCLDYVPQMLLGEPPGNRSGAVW
Method: The inhibitory function is then determined by identifying the number of untreated or inhibitor treated effector cells required to kill the same number of targets.

recombinant perforin = biological target: T2, recombinant perforin (Mus musculus, UniProt P10820); assay: Inhibition of perforin-mediated lysis of Jurkat cells (51Cr release); type: cell-based; conditions: recombinant perforin pre-incubated with compound 30 min; 51Cr-labelled Jurkat cells, 0.1% BSA, 4 h
T2 sequence (P10820 21-554): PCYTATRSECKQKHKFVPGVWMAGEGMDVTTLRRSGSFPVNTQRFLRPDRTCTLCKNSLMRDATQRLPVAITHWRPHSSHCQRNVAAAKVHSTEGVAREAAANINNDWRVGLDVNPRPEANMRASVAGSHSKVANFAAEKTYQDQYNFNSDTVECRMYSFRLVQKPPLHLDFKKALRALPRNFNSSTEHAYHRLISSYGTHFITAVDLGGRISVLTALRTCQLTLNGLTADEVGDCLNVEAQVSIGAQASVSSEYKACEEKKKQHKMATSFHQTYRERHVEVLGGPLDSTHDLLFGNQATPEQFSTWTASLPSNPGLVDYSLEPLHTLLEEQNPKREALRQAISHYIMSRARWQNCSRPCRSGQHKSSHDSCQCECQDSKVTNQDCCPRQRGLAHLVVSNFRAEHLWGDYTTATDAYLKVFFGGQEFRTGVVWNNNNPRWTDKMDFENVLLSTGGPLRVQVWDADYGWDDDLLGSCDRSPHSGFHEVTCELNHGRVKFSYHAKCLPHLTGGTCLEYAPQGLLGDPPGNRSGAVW
From the text: The supernatant was collected and assessed for its radioactive content on a gamma counter (Wallac Wizard 1470 automatic gamma counter).

Row | SMILES | AUC0-∞ [1] | Cmax [1] | T1/2 [1] | Solubility [2] | solubility at 15 min [2] | Microsome Stability (%) Rat (Microsome stability, rat) | Stability in Solution (% parent remaining) [4] | Microsome Stability (%) Mouse [5] | inhibition at 10 µM [6] | Inhibition of Jurkat Cell Lysis IC50 (recombinant perforin) | melting point | viability at 24 h, 10 µM [3]
1 | CN1Cc2cc(-c3ccc(-c4cncc(NC(=O)c5ccc(F)cc5F)c4)s3)ccc2C1=O [Compound 8, 2,4-Difluoro-N-(5-(5-(2-methyl-1-oxoisoindolin-5-yl)thiophen-2-yl)pyridin-3-yl)benzamide] |  |  |  |  |  |  |  |  |  | complete loss of potency | 267 to 269 °C | 
2 | CN1Cc2cc(-c3ccc(-c4cnc(F)c(NS(=O)(=O)c5ccccn5)c4)s3)ccc2C1=O [Compound 20, N-(2-Fluoro-5-(5-(2-methyl-1-oxoisoindolin-5-yl)thiophen-2-yl)pyridin-3-yl)pyridine-2-sulfonamide] |  |  |  | significantly improved |  |  |  |  |  |  |  | 
3 | CN1Cc2cc(-c3ccc(-c4cncc(NS(=O)(=O)c5cc(C(F)(F)F)cc(C(F)(F)F)c5)c4)s3)ccc2C1=O [Compound 47, N-(5-(5-(2-Methyl-1-oxoisoindolin-5-yl)thiophen-2-yl)pyridin-3-yl)-3,5-bis(trifluoromethyl)benzenesulphonamide] |  |  |  |  |  |  |  |  | 0% |  | 299 to 302 °C | 90.2 ± 3.4%
4 | CN1Cc2cc(-c3ccc(-c4cncc(NS(=O)(=O)c5ccccc5C(F)(F)F)c4)s3)ccc2C1=O [Compound 44, N-(5-(5-(2-Methyl-1-oxoisoindolin-5-yl)thiophen-2-yl)pyridin-3-yl)-2-(trifluoromethyl)benzenesulfonamide] |  |  |  | negative impact on solubility | 88 µg/mL | 49% | 92% | 84% | 85 ± 5.6% |  |  | 100%
5 | CN1Cc2cc(-c3ccc(-c4cncc(NS(=O)(=O)c5c(F)cc(F)cc5F)c4)s3)ccc2C1=O [Compound 26, 2,4,6-Trifluoro-N-(5-(5-(2-methyl-1-oxoisoindolin-5-yl)thiophen-2-yl)pyridin-3-yl)benzenesulfonamide] | 1019 µM·h | 124 µM | 4.5 h | highly soluble | 10700 µg/mL | 83% | 88% | 100% | 81.3 ± 6.3% |  |  | 95.1 ± 2.1%

Further lines, with some results ahead:

Row | AUC0-∞ [1] | Cmax [1] | T1/2 [1] | Solubility [2] | solubility at 15 min [2] | Microsome Stability (%) Rat (Microsome stability, rat) | Stability in Solution (% parent remaining) [4] | Microsome Stability (%) Mouse [5] | inhibition at 10 µM [6] | Inhibition of Jurkat Cell Lysis IC50 (recombinant perforin) | melting point | SMILES | viability at 24 h, 10 µM [3]
6 | 642 µM·h | 87 µM | 3.3 h | highly soluble | 12900 µg/mL | 64% | 85% | 87% | 75 ± 7.8% |  |  | CN1Cc2cc(-c3ccc(-c4cncc(NS(=O)(=O)c5ccc(C#N)cc5)c4)s3)ccc2C1=O [Compound 50, 4-Cyano-N-(5-(5-(2-methyl-1-oxoisoindolin-5-yl)thiophen-2-yl)pyridin-3-yl)benzenesulfonamide] | 99.3 ± 0.3%
7 |  |  |  |  |  |  |  |  | 0% |  |  | CN1Cc2cc(-c3ccc(-c4cncc(NS(=O)(=O)c5ccc(S(C)(=O)=O)cc5)c4)s3)ccc2C1=O [Compound 57, Sodium (5-(5-(2-methyl-1-oxoisoindolin-5-yl)thiophen-2-yl)pyridin-3-yl)((4-(methylsulfonyl)phenyl)sulfonyl)amide] | 90 ± 7.8%
8 |  |  |  | negative impact on solubility | 574 µg/mL | 80% |  | 97% | 88.8 ± 1.9% |  |  | CN1Cc2cc(-c3ccc(-c4cncc(NS(=O)(=O)c5cccc(C(F)(F)F)c5)c4)s3)ccc2C1=O [Compound 45, N-(5-(5-(2-Methyl-1-oxoisoindolin-5-yl)thiophen-2-yl)pyridin-3-yl)-3-(trifluoromethyl)benzenesulfonamides] | 100%
9 | 383 µM·h | 64 µM | 2.2 h |  | 1680 µg/mL | 72% |  | 85% | 77.5 ± 5.6% |  |  | CN1Cc2cc(-c3ccc(-c4cncc(NS(=O)(=O)c5ccc([N+](=O)[O-])cc5)c4)s3)ccc2C1=O [Compound 59, N-(5-(5-(2-Methyl-1-oxoisoindolin-5-yl)thiophen-2-yl)pyridin-3-yl)-4-nitrobenzenesulfonamide] | 85 ± 12%
